Key:
[1] = Cell activity (MTT) after treatment with acetaldehyde alone; format: cell-based; settings: human, ca9-22 cells, 1 day, T/NT
Text: The absorbance of each well at 550nm was detected by a microplate reader. […] NT was taken as 100%, and the ratio of T/NT of the sample well was taken as the cell activity, the results of which are shown in Table 3. On the basis of meeting the requirements of significant difference, the greater the cell activity %, the better the effect of inhibiting cell damage caused by acetaldehyde. Table 3 Cell activity results

CA9-22 cells [2] = assay: Cell activity (MTT) of acetaldehyde-treated cells with ectoine; format: cell-based
Protocol: Experimental sample solution: ectoine powder and 17.7 M acetaldehyde were diluted with DMEM culture medium respectively, and then the two were mixed in different ratios to prepare experimental sample solutions with different final concentrations.
The absorbance of each well at 550nm was detected by a microplate reader. […] NT was taken as 100%, and the ratio of T/NT of the sample well was taken as the cell activity. The larger the cell activity %, the better the effect of inhibiting cell damage caused by acetaldehyde. Table 4 Cell activity results

HGF-1 cells [3] = assay: TNF-α generation under CSE induction (ELISA); format: cell-based; settings: 24 h pre-incubation, 5% CSE 24 h, vs control group (FIG. 2)
Protocol: Ectoine (purchased from Bloomage Biotechnology) was weighed separately and dissolved in HGF-1 cell complete culture medium (containing 10% FBS, 1% penicillin-streptomycin), to prepare 100 µg/mL and 500 µg/mL ectoine solutions, respectively.
(§1) Preparation of Cigarette Smoke Extract (CSE): The gas collection bottle was sterilized and the HGF-1 cell culture medium was filled into the gas collection bottle. A certain brand of cigarette was fixed on the long tube end of the gas collection bottle, and the short tube end was connected to a vacuum pump. The vacuum pump was turned on and the cigarette was lighted, so that the cigarette smoke entered the culture medium from the long tube end. In this way, cigarette smoke extract was prepared.
Test method: HGF-1 cells were seeded into a 96-well plate at a density of 30,000 cells/well and cultured at 37°C under 5% CO2 for later use. […] The secretion of TNF-α was detected using an ELISA detection kit. At the same time as the ELISA detection, cell lysate was added to the 96-well plate and centrifugation was performed, and the supernatant was taken for BCA protein quantification. After homogenization, the control group was used as a benchmark, and the relative content of TNF-α was expressed as a percentage. […]

CA9-22 cells [4] = assay: in vitro
Protocol: (§2) Experimental sample solutions: ectoine powder was dissolved in DMEM culture medium to prepare experimental sample solutions with different final concentrations, and the concentrations were shown in Table 2.
(§3) Methods: CA9-22 cells purchased from ATCC were co-cultured with different experimental sample solutions for 1 day, then the experimental sample solution was removed and MTT was added. After 3 hours, the supernatant was carefully sucked out and dimethyl sulfoxide (DMSO) was added. The absorbance of each well at 550 nm was detected by a microplate reader. The untreated well was used as the control, the absorbance of the sample well was defined as T, and the absorbance of the untreated well was defined as NT. NT was taken as 100%, and the ratio of T/NT of the sample wells was taken as the cell activity. Table 2 Cell activity results

in vitro = settings: human, ca9-22 cells, Cell activity
Protocol: as §2, §3

CA9-22 cells [5] = assay: Inflammatory factor IL-6 induced by Pg.LPS (ELISA); format: cell-based; settings: vs Pg.LPS alone (FIG. 3)
Protocol: Experimental materials: Porphyromonas gingivalis lipopolysaccharide (Pg.LPS) (purchased from Sigma), ectoine (from Bloomage Biotechnology Corporation Limited), and DMEM culture medium.
Experimental sample solution: ectoine and Porphyromonas gingivalis lipopolysaccharide were diluted with DMEM culture medium to prepare an experimental sample solution containing a final concentration of 0.001 wt% ectoine + 1 µg/ml Pg.LPS.
CA9-22 cells were cultured in a 24-well plate. After complete attachment, the above experimental sample was added. After 24 hours, the cell culture supernatant was collected. The absorbance at […] and 570 nm was detected by enzyme-linked immunosorbent assay (ELISA), and the concentration of inflammatory factor IL-6 was calculated based on the absorbance.
(§4) According to the method in Example 2.1, an experimental sample solution containing a final concentration of 0.01wt% ectoine + 1µg/ml Pg.LPS was prepared, and the concentration of the inflammatory factor IL-6 was calculated. Other experimental processes not mentioned were the same as those in Example 2.1.
as §4, with “0.05wt% ectoine+1µg/ml” for “0.01wt% ectoine + 1µg/ml”
Statistical analysis: t-test statistical analysis was used to compare each group with group treated with Pg.LPS alone. * indicates p<0.05, which is considered to be of statistical difference. ** indicates p<0.01, which is considered to be of significant statistical difference, and *** indicates p<0.001, which is considered to be of extremely significant statistical difference.
Experimental materials: Porphyromonas gingivalis lipopolysaccharide (Pg.LPS) (purchased from Sigma), ACHA (from Bloomage Biotechnology Corporation Limited), and DMEM culture medium. […]

HGF-1 cells [6] = assay: ROS generation under CSE induction (DCFH-DA fluorescence); format: cell-based; settings: 24 h pre-incubation, 5% CSE 3 h, vs control group (FIG. 1)
Protocol: Ectoin (purchased from Bloomage Biotechnology) was weighed and dissolved in HGF-1 cell (gingival fibroblast) complete culture medium (containing 10% FBS, 1% penicillin-streptomycin), to prepare 100 µg/mL and 500 µg/mL ectoine solutions, respectively.
as §1
Test method: Preparation of a DCFH-DA solution with a final concentration of 10 µM using phenol red-free culture medium.
HGF-1 cells were seeded into a 96-well plate at a density of 30,000 cells/well and cultured at 37°C under 5% CO2 for later use. After 24 hours for cell attachment, a blank group, a control group, and an experimental group containing 100µg/mL and […] ectoine, respectively, were set up, with 100µL/well. […] The fluorescence intensity was measured at an excitation wavelength of 485nm and an emission wavelength of 538nm. […]

SMILES	viability at 24 h, 100 µM ([1]; Acetaldehyde 0.0001M) [%]	viability at 24 h, 1000 µM ([1]; Acetaldehyde 0.001M) [%]	viability at 24 h, 5000 µM ([1]; Acetaldehyde 0.005M) [%]	viability at 24 h, 10000 µM ([1]; Acetaldehyde 0.01M) [%]	viability at 24 h, 20000 µM ([1]; Acetaldehyde 0.02M) [%]	viability at 20000 µM (CA9-22 cells [2]; Homo sapiens, Ca9-22, 24 h, read-out: Cell activity) [%]	TNF-α content after CSE irritation (HGF-1 cells [3]; 100µg/mL ectoine)	TNF-α content after CSE irritation (HGF-1 cells [3]; 500µg/mL ectoine)	cytotoxicity (CA9-22 cells [4])	viability at 24 h (in vitro) [%]	concentration of IL-6 caused by Pg.LPS (CA9-22 cells [5]; 0.001wt% ectoine + 1 µg/ml Pg.LPS, 24 h (Example 2.1))	concentration of IL-6 caused by Pg.LPS (CA9-22 cells [5]; 0.01wt% ectoine + 1µg/ml Pg.LPS, 24 h (Example 2.2))	concentration of IL-6 caused by Pg.LPS (CA9-22 cells [5]; 0.05wt% ectoine + 1µg/ml Pg.LPS, 24 h (Example 2.3))	cell activity of CA9-22 after the addition of ectoine (CA9-22 cells [2]; Acetaldehyde 0.02 M + ectoine 0.02-0.1 wt%, vs acetaldehyde-treated group)	ROS content after CSE oxidative irritation (HGF-1 cells [6]; 100µg/mL ectoine)	ROS content after CSE oxidative irritation (HGF-1 cells [6]; 200µg/mL ectoine)
CC=O [Acetaldehyde, acetaldehyde]	96	93	93	89	70	70										
CC1=NC(C(=O)O)CCN1 (stereo not shown) [ectoine, 2-methyl-1,4,5,6-tetrahydropyrimidin-4-carboxylic acid]							can inhibit the increase of TNF-α content	can inhibit the increase of TNF-α content	no cytotoxicity	112	can significantly reduce the concentration of IL-6	can significantly reduce the concentration of IL-6	can significantly reduce the concentration of IL-6	increased	can inhibit the increase of ROS content	can inhibit the increase of ROS content

— patent EP4643860A1, “USE OF ECTOIN OR DERIVATIVE THEREOF IN PREVENTING AND/OR AMELIORATING CELL DAMAGE CAUSED BY IRRITANT, AND METHOD” (Bloomage Biotechnology Corporation Limited, priority 2022, dated 2024)
